From patent US10213407B2, “Compounds and methods for inhibiting production of trimethylamine” (The Procter & Gamble Company, priority 2015, dated 2019) come the findings set out here.

In the experiment the test system is Proteus mirabilis 29906 (Pm) lysate. Kind of experiment: Inhibition of formation of TMA from choline in Proteus mirabilis lysate (d9-choline to d9-TMA, LC-MS/MS). Format: biochemical. The following applies: conversion of choline to TMA; Pm lysate 1.5 mg/mL protein, 50 μM d9-choline chloride, 37° C., two hours; read-out: TMA Inhibition (IC50, mol/L). Here is the method:
EXAMPLE 2 Assay for identifying and characterizing compounds that inhibit the formation of TMA from choline.
This example provides an exemplary assay for identifying and characterizing compounds that inhibit the formation of TMA from choline.
Proteus mirabilis 29906 (Pm) strain was grown aerobically overnight in 500 ml of Nutrient Broth media (3 g/L beef extract, 5 g/L Peptone; Difco #234000) at 37° C. with 250 rpm shaking. The biomass was pelleted by centrifugation at 6000×g for 12 minutes at 4° C. The cell pellet was suspended in 240 mL of ice-cold 1× Phosphate Buffered Saline (Ca^2+ and Mg^2+ free). Ninety micrograms of Lysozyme (Sigma #L6876 Lot #SLBG8654V; Sigma-Aldrich Corp., St. Louis, Mo.) was added and incubated with 320 rpm shaking for 30 minutes at 4° C. Lysis was achieved via French press with a 4° C. prechilled 1″ diameter chamber at 1000 psi (high ratio; internal PSI equivalent ˜16000). The lysate was centrifuged at 6,000×g for 12 minutes at 4° C. to pellet extra debris. A protein concentration of the centrifuged lysate supernatant was determined by a BCA Protein Assay Kit (Pierce #23225; Thermo Fisher Scientific Co., Waltham, Mass.) and protein concentration adjusted to 3 mg/ml with 1× Dulbecco's phosphate buffered saline (DPBS). The centrifuged supernatant lysate was aliquoted into 20 mL volumes and stored frozen at −80° C.
Proteus mirabilis 29906 (Pm) lysate was diluted to 1.5 mg/mL protein with 1×DPBS. Choline chloride (CC) (1M stock) was added to reach a final concentration of 2.5 mM choline chloride. The mixture was mixed using a vortex mixer for approximately 15 seconds and incubated at 37° C. for 22 hours. After incubation, 150 μL of CC-treated Pm lysate was dispensed into a deep-well plate (polypropylene, 2 mL volume, Corning Axygen catalogue #P-DW-20-C). Candidate IC50 compounds from TABLE 1 and vehicle control (respective vehicle control of DMSO or water), or control compounds (IC50 control, 8-Quinolinol hemisulfate salt (Sigma Catalog #55100)) were added at a 1:100 dilution (e.g., 1.5 μL per well). The plates were agitated on a plate shaker for 1 minute. d9-choline chloride (1.5 μL of 5 mM) was added to all wells to reach a final d9-choline chloride concentration of 50 μM.
The plates were again agitated on a plate shaker for 1 minute and incubated at 37° C. for two hours. After incubation, 1.5 μL of formic acid was added to each well (final concentration=1% formic acid). The plates were agitated on a plate shaker for 1 minute and placed on ice. Cell lysate samples were spiked with stable isotope labeled internal standard (22.5 μL of 6 μg/mL of 13C3-trimethylamine (13C3-TMA) was added to each sample), then d9-trimethylamine (d9-TMA), trimethylamine (TMA) and 13C3-TMA were isolated from the lysate after protein precipitation as described below. Acetonitrile acidified with 0.1% formic acid, 600 μL, was added to each sample which was then centrifuged (2,100 g for 20 minutes) to pellet the protein and other precipitates. The supernatant was removed and analyzed as described below. The TMA, d9-TMA and 13C3-TMA in the isolated supernatant samples were subjected to gradient High Performance Liquid Chromatography (HPLC) analysis on a Waters Atlantis HILIC Silica column, from Waters Corp., Milford, Mass., (2.1×50 mm, 3 μm particles) with an Atlantis Silica HILIC Sentry guard column, from Waters Corp., Milford, Mass., (100 Å, 3 μm, 2.1 mm×10 mm), 10 mM ammonium formate in water with 0.1% formic acid as mobile phase A and 0.1% formic acid in acetonitrile as mobile phase B. Detection and quantitation was achieved by tandem mass spectrometry operating under multiple reaction monitoring (MRM) MS/MS conditions (m/z 60.1→44.1 for TMA, m/z 69.1→49.1 for d9-TMA, m/z 63.0→46.1 for 13C3-TMA). TMA and d9-TMA calibration standards (STD), prepared in 80/20/0.1% acetonitrile/Water/Formic Acid, were used to construct a regression curve by plotting the response (peak area TMA/peak area 13C3-TMA) versus concentration for each standard. […]
For `CC[N+](C)(CC)CCCN=C=S` [Compound 2, 3-Isothiocyanato-N,N-diethyl-N-methylpropanaminium iodide], the IC50 worked out at 10.6 µM. Next, `CCOC(=O)C(=O)C[N+](C)(C)CCN=C=S` [Compound 5, N-(Ethoxypropyl-2,3-dione)-2-isothiocyanato-N,N-dimethylethan-1-aminium bromide]: 769 µM; `CCOC(=O)C(=O)C[N+](C)(C)CCCN=C=S` [Compound 6]: 14.4 µM. Next, `CC[N+](CC)(CCBr)CCCN=C=S` [Compound 7, N-(2-Bromoethyl)-3-isothiocyanato-N,N-diethylpropan-1-aminium triflate]: 18.2 µM; `CC[N+](CC)(CC#N)CCCN=C=S` [Compound 9, N-Cyanomethyl-3-isothiocyanato-N,N-diethylpropan-1-aminium bromide]: 60.5 µM.
